Data reported in patent US20080219975A1, “VEGFR3 INHIBITORS” (priority 2006, published 2008).
Blank lines part the entries; values can stand above or below the compound they belong to.

How the values were obtained:
VEGFR3 [1] = target: T1, VEGFR3 (Homo sapiens, UniProt P35916); experiment: VEGFR3 in vitro kinase assay; assay type: biochemical; conditions: 10 μM ATP
Protocol: The VEGFR3 kinase reaction was performed at 30° C. for 10 minutes in a 96-well microtiterplate. The 25 μl reaction volume contained 8 mM MOPS pH 7, 200 μM EDTA, 10 mM MgAc, 10 μM unlabeled ATP, […] AT33P, 500 μM JAK3-tide (Ac-GGEEEEYFELVKKKK-NH2), 25 ng VEGFR3 and 2% compound in 100% DMSO.
The reaction was stopped by adding 5 μl of a 3% phosphoric acid solution. 10 μl of the reaction mixture was then spotted onto a Filtermat P30 filter (Wallac) and washed 3 times for 5 min. in 0.75% phosphoric acid and 1 time for 2 min. in methanol prior to transferring to a sealable plastic bag containing 4 ml of scintillation liquid and reading in a scintillation counter.

[2] = test system: VEGFR3 dependent VEGF-C stimulation of Erk1/2; experiment: Inhibition of Erk activation induced by VEGF-C in HMVEC-d cells; assay type: cell-based, human; conditions: 5 μM, 100 ng/ml VEGF-C (FIG. 2)
Protocol: (§1) HMVEC-d cells (Cambrex) were cultured at 37 C in 5% CO2 in appropriate serum containing medium (Cambrex) on fibronectin coated 12-well plates (BD Biocoat, Becton Dickinson) for 4 days. Cells were then starved for 16 hours in the same medium as before, but lacking serum and containing SITE+3 (Invitrogen) instead. Cells were then preincubated with DMSO at 0.2% (the solvent) or 5 uM Compound 2 for 60 minutes and then either 10 ng/ml VEGF or 100 ng/ml VEGF-C (R&D systems) was added to the cells. Before, or 10 and 30 minutes after stimulation, the medium was removed, cells were rinsed with ice-cold PBS containing 0.1 mM sodiumorthovanadate and lysed in M-PER buffer (PIERCE) containing 0.1% SDS, and 1× phosphatase and protease inhibitors (HALT, PIERCE). Cells were scraped off the plates and incubated in lysis buffer for 30 minutes on ice and then centrifuged at 4° C. for 10 min at 16000×g. Lysates were quantified using the BCA reagent according to the manufacturer's instructions (PIERCE), and […] of total protein was loaded on SDS-polyacrylamide gels (NUPAGE, Invitrogen). Electrophoresis and blotting onto PVDF membranes was all performed using reagents from the NUPAGE system, according to the manufacturer's instructions. […]

[3] = test system: VEGFR1 mediated VEGF signaling; experiment: VEGF stimulation of Erk1/2 in HMVEC-d cells; assay type: cell-based, human; conditions: 5 μM, 10 ng/ml VEGF (FIG. 2)
Protocol: as §1

Xenopus tadpoles = experiment: VEGFR3 in vivo Xenopus assay (lymphangiogenesis, LEC migration); conditions: for % Relative Area 2-3: LECs in area 2-3 relative to vehicle control; for % Relative Max Migration: furthest LEC migration from PCV relative to vehicle control; for % embryos with reduced migration: stages 35-36 tadpoles
Protocol: Xenopus tadpoles were used as a model (Ny et al Nature Medicine 11: 998-1004 (2005)) to analyze the effects of Compound 2 on lymphangiogenesis. The compound was administered daily in a dose dependent manner, with vehicle controls, to the medium of the Xenopus tadpoles starting at stage 26-28, i.e., before the formation of both blood and lymphatic vessels. The effects of the compound was monitored by “live analysis”, i.e. live embryos were examined 4 days later for evidence of lymph-vascular defects by trained observers. As an additional means of confirming the results, in a limited number of experiments, tadpoles were fixed at stage 35-36 and in situ hybridizations for Prox1 were performed to assess migration of lymphatic endothelial cells (LECs) from the posterior cardinal vein (PCV) to their dorsal endpoint, this reflecting an essential step in lymphangiogenesis. Under normal circumstances, LECs arise from the region of the PCV, accumulate there, and during the study period, they migrate dorsally to defined “areas” (Area 1 to Area 2 and Area 3), where they then further migrate rostrally and caudally to form the lymphatic vasculature in the tail and trunk. Defects in migration of the LECs from the PCV was quantified by determining the maximal migration of the cells, and by counting the number of cells in these different regions in the tail.

VEGFR3 [4] = target: T1, VEGFR3; experiment: Inhibition of VEGF-C induced VEGFR-3 phosphorylation in PAE cells stably expressing human VEGFR-3; assay type: cell-based; design: expressed in transfected cells; host or cells: porcine aortic endothelial (PAE) cells; conditions: PAE cells expressing human VEGFR-3, 100 ng/ml VEGF-C, Western blot (FIG. 1)
Protocol: For this assay, porcine aortic endothelial (PAE) cells stably expressing human VEGFR-3 were grown to confluency on 10 cm dishes. The cells were serum starved overnight and the media replaced with fresh serum-free media. […] This was followed by the addition of VEGF-C to a final concentration of 100 ng/ml and the cells incubated for 10 min at 37° C., after which they were washed with ice-cold PBS and then lysed. Cell lysates containing protease inhibitors were subjected to immunoprecipitation with an antibody specific for VEGFR-3 and the immunoprecipitates separated by SDS-PAGE. Proteins were transferred to a nitrocellulose membrane, and then probed first with a phospho-tyrosine antibody and then a VEGFR-3 antibody.

T1 sequence (P35916 25-1363): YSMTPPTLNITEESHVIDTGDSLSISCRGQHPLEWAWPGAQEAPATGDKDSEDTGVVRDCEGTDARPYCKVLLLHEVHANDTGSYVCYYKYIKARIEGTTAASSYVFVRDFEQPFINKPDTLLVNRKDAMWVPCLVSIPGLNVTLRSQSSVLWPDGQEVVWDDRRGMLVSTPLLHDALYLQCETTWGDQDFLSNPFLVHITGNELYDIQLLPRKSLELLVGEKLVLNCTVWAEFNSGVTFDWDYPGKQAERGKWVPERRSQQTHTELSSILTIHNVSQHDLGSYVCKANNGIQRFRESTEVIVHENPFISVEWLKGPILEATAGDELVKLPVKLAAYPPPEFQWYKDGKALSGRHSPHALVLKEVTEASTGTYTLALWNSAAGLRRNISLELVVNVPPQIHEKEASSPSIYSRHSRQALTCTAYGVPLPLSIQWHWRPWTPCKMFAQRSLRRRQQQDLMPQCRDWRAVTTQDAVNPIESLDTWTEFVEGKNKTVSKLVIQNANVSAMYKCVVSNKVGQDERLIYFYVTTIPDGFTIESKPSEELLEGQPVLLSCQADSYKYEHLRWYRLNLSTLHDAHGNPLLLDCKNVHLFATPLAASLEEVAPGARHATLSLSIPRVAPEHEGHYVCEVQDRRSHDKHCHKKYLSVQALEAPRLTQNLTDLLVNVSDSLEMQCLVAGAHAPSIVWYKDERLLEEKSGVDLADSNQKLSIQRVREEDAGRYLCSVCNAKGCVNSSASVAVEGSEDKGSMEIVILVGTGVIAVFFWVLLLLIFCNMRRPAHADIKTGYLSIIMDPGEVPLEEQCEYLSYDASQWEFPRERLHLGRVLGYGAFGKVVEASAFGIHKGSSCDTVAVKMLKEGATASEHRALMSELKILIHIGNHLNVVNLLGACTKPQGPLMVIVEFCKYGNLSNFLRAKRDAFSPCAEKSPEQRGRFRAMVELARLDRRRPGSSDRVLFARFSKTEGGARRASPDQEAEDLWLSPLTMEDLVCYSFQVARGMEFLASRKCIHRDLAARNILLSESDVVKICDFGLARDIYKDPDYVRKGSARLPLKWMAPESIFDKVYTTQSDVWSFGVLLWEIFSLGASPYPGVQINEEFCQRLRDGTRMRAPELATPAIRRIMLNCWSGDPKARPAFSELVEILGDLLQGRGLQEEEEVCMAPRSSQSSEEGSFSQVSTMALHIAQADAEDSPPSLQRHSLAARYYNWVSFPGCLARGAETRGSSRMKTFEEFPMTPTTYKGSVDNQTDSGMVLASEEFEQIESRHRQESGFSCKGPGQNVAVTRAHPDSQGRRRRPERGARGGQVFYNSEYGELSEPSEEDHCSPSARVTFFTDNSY

melting point: 255.5 to 260.2 °C
Compound: COc1cc2ncnc3c2cc1OCCCCCCOc1c(Cl)cccc1N3 [4,6-ethanediylidene-19H-pyrimido[4,5-b][6,13,1]benzodioxaazacyclo-pentadecine, 15-chloro-8,9,10,11,12,13-hexahydro-20-methoxy-]

IC50 (VEGFR3 [1]): 0.0182 µM
tadpoles with hemorrhages (Xenopus tadpoles; concentrations >50 uM, live screening): 30%
VEGF-C induced VEGFR-3 phosphorylation (VEGFR3 [4]): dose dependent reduction
Compound: COc1cc2ncnc3c2cc1OCCCCCN(C)Cc1ccc(Br)cc1N3 [Compound 2, 4,6-ethanediylidenepyrimido[4,5-b][6,1,12]benzoxadiazacyclo-pentadecine, 17-bromo-8,9,10,11,12,13,14,19-octahydro-20-methoxy-13-methyl-]
phosphorylation of Erk1/2 by VEGF-C [2]: prevented
VEGF stimulation of Erk1/2 [3]: did not interfere
% Relative Area 2-3 (Xenopus tadpoles; 0.3125 μM): 37 ± 20%
% Relative Max Migration (Xenopus tadpoles; 0.3125 μM): 73 ± 22%
% embryos with reduced migration (Xenopus tadpoles; 0.3125 μM): 57%
% Relative Area 2-3 (Xenopus tadpoles; 1.25 μM): 20 ± 8%
% Relative Max Migration (Xenopus tadpoles; 1.25 μM): 47 ± 5%
% embryos with reduced migration (Xenopus tadpoles; 1.25 μM): 63%
% Relative Area 2-3 (Xenopus tadpoles; 5 μM): 123 ± 32%
% Relative Max Migration (Xenopus tadpoles; 5 μM): 121 ± 3%
% embryos with reduced migration (Xenopus tadpoles; 5 μM): 40%
% Relative Area 2-3 (Xenopus tadpoles; 20 μM): 19 ± 8%
% Relative Max Migration (Xenopus tadpoles; 20 μM): 35 ± 1%
tadpoles that developed edema (Xenopus tadpoles; 20 uM, live screening): 10%
% embryos with reduced migration (Xenopus tadpoles; 20 μM): 60%
% Relative Area 2-3 (Xenopus tadpoles; 80 μM): 56 ± 15%
% Relative Max Migration (Xenopus tadpoles; 80 μM): 67 ± 21%
% embryos with reduced migration (Xenopus tadpoles; 80 μM): 80%
effects in Xenopus tadpole model (Xenopus tadpoles; in vivo): phenocopy the effects of VEGF-C knockout
Lymphatic Endothelial Cell (LEC) migration in tadpoles (Xenopus tadpoles; stage 35-36 tadpoles): dose dependently inhibits
